How the values were obtained:
[1] = Antioxidant activity assessed as superoxide anion radical scavenging activity at 1 mM; assay type: functional
[2] = tested on: Radical scavenging activity; test: Antioxidant activity assessed as DPPH radical scavenging activity at 0.5 mM after 30 min; assay type: functional

Row | Compound | Activity [1] | Activity [2]
1 | Cc1c2c(nn1CC(=O)Nc1ccccc1)-c1ccccc1S(=O)(=O)N2C | 28.6% | 18.3%
2 | Cc1c2c(nn1CC(=O)NCc1ccccc1Br)-c1ccccc1S(=O)(=O)N2C | 64% | 21.1%
3 | Cc1c2c(nn1CC(=O)NCc1ccc(Cl)cc1)-c1ccccc1S(=O)(=O)N2C | 47.2% | 16.7%
4 | Cc1c2c(nn1CC(=O)Nc1ccccc1F)-c1ccccc1S(=O)(=O)N2C | 47.7% | 23.1%
5 | COc1ccccc1NC(=O)Cn1nc2c(c1C)N(C)S(=O)(=O)c1ccccc1-2 | 53.8% | 26.9%
6 | COc1ccc(O)c(C(C)(C)C)c1.COc1ccc(O)cc1C(C)(C)C | – | 92.6%
7 | Cc1c2c(nn1CC(=O)Nc1ccc(Cl)cc1)-c1ccccc1S(=O)(=O)N2C | 55.6% | 25.4%
8 | Cc1c2c(nn1CC(=O)NCc1ccccc1Cl)-c1ccccc1S(=O)(=O)N2C | 52.5% | 17.1%
9 | Cc1ccccc1CNC(=O)Cn1nc2c(c1C)N(C)S(=O)(=O)c1ccccc1-2 | 81.5% | 15.2%
10 | Cc1ccc(CNC(=O)Cn2nc3c(c2C)N(C)S(=O)(=O)c2ccccc2-3)cc1 | 57.8% | 17.9%
11 | Cc1c2c(nn1CC(=O)Nc1ccccc1Br)-c1ccccc1S(=O)(=O)N2C | 79.1% | 27.6%
12 | COc1ccc(CNC(=O)Cn2nc3c(c2C)N(C)S(=O)(=O)c2ccccc2-3)cc1 | 33.1% | 23.7%
13 | COc1ccc(NC(=O)Cn2nc3c(c2C)N(C)S(=O)(=O)c2ccccc2-3)c(OC)c1 | 78.3% | 39.8%
14 | Cc1c2c(nn1CC(=O)NCc1ccc(F)cc1)-c1ccccc1S(=O)(=O)N2C | 42.3% | 15.8%
15 | COc1cccc(CNC(=O)Cn2nc3c(c2C)N(C)S(=O)(=O)c2ccccc2-3)c1 | 25.9% | 16.2%
16 | CCCOC(=O)c1cc(O)c(O)c(O)c1 | 90.8% | –
17 | Cc1c2c(nn1CC(=O)Nc1cccc(Br)c1)-c1ccccc1S(=O)(=O)N2C | 47.1% | 26.1%
18 | Cc1c2c(nn1CC(=O)NCc1cccc(Br)c1)-c1ccccc1S(=O)(=O)N2C | 32.5% | 14.1%
19 | COc1ccccc1CNC(=O)Cn1nc2c(c1C)N(C)S(=O)(=O)c1ccccc1-2 | 38.8% | 25.6%
20 | Cc1c2c(nn1CC(=O)Nc1ccccc1Cl)-c1ccccc1S(=O)(=O)N2C | 61% | 21.8%
21 | COc1cccc(NC(=O)Cn2nc3c(c2C)N(C)S(=O)(=O)c2ccccc2-3)c1 | 47.4% | 20.2%
22 | Cc1c2c(nn1CC(=O)NCc1ccccc1F)-c1ccccc1S(=O)(=O)N2C | 48.5% | 20.2%
23 | COc1ccc(CNC(=O)Cn2nc3c(c2C)N(C)S(=O)(=O)c2ccccc2-3)c(OC)c1 | 58.3% | 27.3%
24 | Cc1c2c(nn1CC(=O)Nc1ccc(F)cc1)-c1ccccc1S(=O)(=O)N2C | 44.1% | 22.1%

From ChEMBL document CHEMBL3046411, “Synthesis and antioxidant studies of novel N-substituted benzyl/phenyl-2-(3,4-dimethyl-5,5-dioxidopyrazolo[4,3-c][1,2]benzothiazin-2(4H)-yl)acetamides” (Med Chem Res, 2013)
